Drawing on article PMC3410622 (2012), this text covers Ki for 1 compound.

The assay concerns the target glutamate carboxypeptidase II (GCPII) (Homo sapiens, UniProt Q04609). Format: biochemical.

Each structure is given as a SMILES string.

For orientation: Ki means a dissociation constant, usually derived from enzyme kinetics or from competition with a known ligand.

Sequence of glutamate carboxypeptidase II (GCPII) (Q04609 whole entry): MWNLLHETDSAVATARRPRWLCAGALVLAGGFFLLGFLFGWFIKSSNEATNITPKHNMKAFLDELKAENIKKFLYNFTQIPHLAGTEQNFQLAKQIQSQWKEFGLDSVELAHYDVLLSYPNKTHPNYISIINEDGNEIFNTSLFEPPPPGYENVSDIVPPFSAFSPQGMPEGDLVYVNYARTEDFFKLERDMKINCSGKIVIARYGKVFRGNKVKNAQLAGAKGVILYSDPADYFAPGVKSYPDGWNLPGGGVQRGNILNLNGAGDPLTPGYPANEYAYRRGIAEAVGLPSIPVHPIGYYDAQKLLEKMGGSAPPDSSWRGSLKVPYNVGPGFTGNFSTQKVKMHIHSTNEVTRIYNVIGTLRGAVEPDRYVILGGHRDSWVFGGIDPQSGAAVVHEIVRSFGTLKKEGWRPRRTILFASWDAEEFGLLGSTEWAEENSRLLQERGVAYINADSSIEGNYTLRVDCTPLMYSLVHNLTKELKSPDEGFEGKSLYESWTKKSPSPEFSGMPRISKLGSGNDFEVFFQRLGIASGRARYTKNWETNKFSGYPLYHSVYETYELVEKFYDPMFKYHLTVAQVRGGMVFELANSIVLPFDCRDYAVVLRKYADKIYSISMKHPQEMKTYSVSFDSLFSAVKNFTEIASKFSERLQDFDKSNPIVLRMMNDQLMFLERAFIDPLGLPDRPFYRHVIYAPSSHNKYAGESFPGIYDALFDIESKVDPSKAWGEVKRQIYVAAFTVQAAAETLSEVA

Consider `CCC[C@H](NC(=O)N[C@@H](CCC(=O)O)C(=O)O)C(=O)O` [ZJ44, N-[[[(1S)-1-Carboxy-3-methylpropyl]amino]carbonyl]-L-glutamic acid], for which affinity was put at a Ki of 39.4 ± 2.9 nM.
